Article PMC10916518 (Drug Design, Development and Therapy, 2024)
≈ marks a conversion by molar mass, not a printed value.

Key:
RD cells = test: Cytotoxicity of medicines by CCK-8; type: cell-based, human; settings: 48 h
[1] = Cytotoxicity of medicines by CCK-8; type: cell-based, human; settings: human, RD cells
EV71 [2] = test: Inhibition of cell death caused by EV71 infection; type: cell-based, Enterovirus 71; settings: Enterovirus A, EV71, RD, 48 h
EV71 [3] = settings: Vero cells pretreated with 200 μM before infection; cited from earlier work

| SMILES | MNTC (RD cells) [µg/mL] | other results |
| --- | --- | --- |
| O=c1c(O[C@@H]2O[C@H](CO)[C@H](O)[C@H](O)[C@H]2O)c(-c2ccc(O)c(O)c2)oc2cc(O)cc(O)c12 [Hyperoside] | 200.00 |  |
| NC(=O)c1ncn([C@@H]2O[C@H](CO)[C@@H](O)[C@H]2O)n1 [ribavirin, Ribavirin, reference compound] |  | CC50 at 48 h [1]: 2430 µg/mL (≈ 9950 µM); MNTC (maximum non-toxic concentration) (RD cells; cell survival rate ≥ 90%): 1 mg/mL; IC50 (EV71 [2]): 290 µg/mL (≈ 1190 µM) |
| C[C@@H]1O[C@@H](OC[C@H]2O[C@@H](Oc3c(-c4ccc(O)c(O)c4)oc4cc(O)cc(O)c4c3=O)[C@H](O)[C@@H](O)[C@@H]2O)[C@H](O)[C@H](O)[C@H]1O [Rutin, rutin] | 200.00 | EV71-induced CPE and viral replication (EV71 [3]): significantly suppress |
| O=C(O)/C=C/c1ccc(O)c(O)c1 [Caffeic acid] | 50.00 |  |
| O=C(O)c1cc(O)c(O)c(O)c1 [Gallic acid, gallic acid] | 6.25 |  |
| O=c1c(O[C@@H]2O[C@H](CO)[C@@H](O)[C@H](O)[C@H]2O)c(-c2ccc(O)cc2)oc2cc(O)cc(O)c12 [Astragalin] | 200.00 |  |
| O=C(/C=C/c1ccc(O)c(O)c1)O[C@H](Cc1ccc(O)c(O)c1)C(=O)O [Rosmarinic acid, rosmarinic acid] | 50.00 | IC50 (EV71 [2]): 11.9 µg/mL (≈ 33 µM) |
| O=C(/C=C/c1ccc(O)c(O)c1)O[C@H]1[C@H](O)C[C@](O)(C(=O)O)C[C@H]1O [Cryptochlorogenic acid, cryptochlorogenic acid] | 100.00 |  |
